Experiments:
Phakopsora pachyrhizi = assay: Greenhouse: curative control of soybean rust on soybeans; format: in vivo; settings: single active, sprayed to run-off, soybean seedlings, assessed after 14 days
Description: EXAMPLE 1—Curative control of soybean rust on soybeans caused by Phakopsora pachyrhizi
Leaves of potted soybean seedlings were inoculated with spores of Phakopsora pachyrhizi. To ensure the success of the artificial inoculation, the plants were transferred to a humid chamber with a relative humidity of about 95% and 20 to 24 ? C for 24 h. The next day the plants were cultivated for 2 days in a greenhouse chamber at 23-27 °C and a relative humidity between 60 and 80%. Then the plants were sprayed to run-off with the previously described spray solution, containing the concentration of active ingredient or their mixture as described below. The plants were allowed to air-dry. Then the trial plants were cultivated for 14 days in a greenhouse chamber at 23-27 °C and a relative humidity between 60 and 80%. The extent of fungal attack on the leaves was visually assessed as % diseased leaf area.
The disease ratings (or diseased leaf area) were converted into efficacies.
An efficacy of 0 means that the infection level of the treated plants corresponds to that of the untreated control plants; an efficacy of 100 means that the treated plants were not infected.
The expected efficacies of active compound mixtures were determined using Colby's formula [R.S. Colby, “Calculating synergistic and antagonistic responses of herbicide combinations”, Weeds 15, 20-22 (1967)] and compared with the observed efficacies.

Alternaria solani = assay: Microtest: activity against early blight; format: cell-based; settings: single active, MTP, 405 nm, 7 days after inoculation
Description: The active compounds were formulated separately as a stock solution having a concentration of 10000 ppm in dimethyl sulfoxide. The stock solutions were mixed according to the ratio, pipetted onto a micro titer plate (MTP) and diluted with water to the stated concentrations. Example 2—Activity against early blight caused by Alternaria solani A spore suspension of Alternaria solani in an aqueous biomalt or yeast-bactopeptone-glycerine or DOB solution was then added. The plates were placed in a water vapor-saturated chamber at a temperature of 18° C. Using an absorption photometer, the MTPs were measured at 405 nm 7 days after the inoculation. The measured parameters were compared to the growth of the active compound-free control variant (100%) and the fungus-free blank value to determine the relative growth in % of the pathogens in the respective active compounds. These percentages were converted into efficacies. An efficacy of 0 means that the growth level of the pathogens corresponds to that of the untreated control; an efficacy of 100 means that the pathogens were not growing. The expected efficacies of active compound mixtures were determined using Colby's formula [R.S. Colby, “Calculating synergistic and antagonistic responses of herbicide combinations”, Weeds 15, 20-22 (1967)] and compared with the observed efficacies.

Septoria tritici = assay: Microtest: activity against leaf blotch on wheat; format: cell-based; settings: single active, MTP, 405 nm, 7 days after inoculation
Description: The active compounds were formulated separately as a stock solution having a concentration of 10000 ppm in dimethyl sulfoxide. The stock solutions were mixed according to the ratio, pipetted onto a micro titer plate (MTP) and diluted with water to the stated concentrations. EXAMPLE 1—Activity against leaf blotch on wheat caused by Septoria tritici A spore suspension of Septoria tritici in an aqueous biomalt or yeast-bactopeptone-glycerine or DOB solution was then added. The plates were placed in a water vapor-saturated chamber at a temperature of 18° C. Using an absorption photometer, the MTPs were measured at 405 nm 7 days after the inoculation. The measured parameters were compared to the growth of the active compound-free control variant (100%) and the fungus-free blank value to determine the relative growth in % of the pathogens in the respective active compounds. These percentages were converted into efficacies. An efficacy of 0 means that the growth level of the pathogens corresponds to that of the untreated control; an efficacy of 100 means that the pathogens were not growing. The expected efficacies of active compound mixtures were determined using Colby's formula [R.S. Colby, “Calculating synergistic and antagonistic responses of herbicide combinations”, Weeds 15, 20-22 (1967)] and compared with the observed efficacies.

SMILES | Observed efficacy (Phakopsora pachyrhizi; 1 ppm) | Observed efficacy (Alternaria solani; 1 ppm) | Observed efficacy (Septoria tritici; 4 ppm) | Observed efficacy (Phakopsora pachyrhizi; 0.25 ppm) | Observed efficacy (Alternaria solani; 0.016 ppm) | Observed efficacy (Septoria tritici; 0.063 ppm) | Observed efficacy (Septoria tritici; 0.25 ppm)
CCC(=O)Oc1c(OC)ccnc1C(=O)N[C@@H](C)C(=O)O[C@@H](C)[C@@H](C)c1ccccc1C [Compound I, [(1S,2S)-1-methyl-2-(o-tolyl)propyl] (2S)-2-[(4-methoxy-3-propanoyloxy-pyridine-2-carbonyl)amino]propanoate] | 18 | 0 | 56 | – | – | – | –
CON(Cc1ccc(-c2noc(C(F)(F)F)n2)cc1)C(=O)C1CC1 [Compound II-1, N-methoxy-N-[[4-[5-(trifluoromethyl)-1,2 ,4-oxadiazol-3-yl]phenyl]methyl]cyclopropanecarboxamide] | 14 | – | – | 0 | 0 | – | –
O=C(NC1CCC1c1ccc(Cl)cc1Cl)c1cccnc1C(F)(F)F (centres unmarked) [Compound II-2, N-[2-(2,4-dichlorophenyl)cyclobutyl]-2-(trifluoromethyl)pyridine-3-carboxamide] | – | – | – | – | – | 12 | 49
